Measurements as given in patent US11312804B2, “Polymerizable compound, polymerizable composition, polymer, and photoresist composition” (JNC CORPORATION, priority 2018, dated 2022).

Test: Water solubility test: extraction from water into ethyl acetate, weight of residue
Format: physicochemical
Settings: for weight of the residue: 0.500 g dissolved in 10 mL water at room temperature, 10 mL ethyl acetate added, stirred 10 min, organic layer dried and concentrated
Procedure: In 10 mL of water, 0.500 g of the compound represented by formula (14a-x) was dissolved at room temperature, and 10 mL of ethyl acetate was added thereto, and the resulting mixture was stirred for 10 min, and then the organic layer was dried over anhydrous sodium sulfate. The desiccant was filtered off, and then the filtrate was concentrated under reduced pressure. The weight of the residue was 0.101 g.
In 10 mL of water, 0.500 g of a compound represented by formula (15), namely, mevalonolactone was dissolved at room temperature, and 10 mL of ethyl acetate was added thereto, and the resulting mixture was stirred for 10 min, and then the organic layer was dried over anhydrous sodium sulfate. The desiccant was filtered off, and then the filtrate was concentrated under reduced pressure. Then weight of the residue was 0.080 g.

SMILES | weight of the residue | water solubility compared with the compound used in Comparative Example 1 (conclusion from ethyl acetate extraction test)
C[C@H]1C(=O)OCC[C@@]1(C)O [Compound 14a-x, α-methyl-mevalonolactone] | 0.101 g | lower water solubility
CC1(O)CCOC(=O)C1 (stereo not drawn) [Compound 15, mevalonolactone, reference compound] | 0.080 g | –
